These results are taken from PubChem BioAssay (NCI).

Some test systems named below: SK-MEL-28 melanoma; MDA-MB-231 breast; HL-60(TB) leukemia; HS 578T breast; HOP-92 NSCLC; OVCAR-5 ovarian; OVCAR-8 ovarian; A498 renal; DU-145 prostate; HOP-62 NSCLC.
Common to all, as to assay: growth of human tumour cells (NCI), 48 h

Structures are written as SMILES.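 In this assay, cells in 96-well plates receive the compound at five concentrations for 48 hours. Endpoints are linearly interpolated between the surrounding concentrations. The concentration for 50% growth inhibition is given as GI50. TGI is the concentration that stops growth completely.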 Peptide text beside a SMILES is read from it. * marks the point of attachment. X26 = Clc1c(Cl)c(Cl)c(O*)c(Cl)c1Cl; Boc = CC(C)(C)OC(=O)*; OBn = c1ccc(CO*)cc1; Bn = c1ccc(C*)cc1

On to `O=C1/C(=C/c2ccc(Cl)cc2)CCCc2ccc(F)cc21`, for which the GI50 was 14.7 µM in the experiment on SK-MEL-28 melanoma; 19.8 µM in the experiment with MDA-MB-231 breast; 17.2 µM in the experiment with HL-60(TB) leukemia; 29.2 µM in the experiment on HS 578T breast; 9.3 µM in the experiment with HOP-92 NSCLC; 32.4 µM with OVCAR-5 ovarian. For the same compound, the GI50 in the experiment on OVCAR-8 ovarian was 22.8 µM. Besides, the TGI with SK-MEL-28 melanoma is 40.9 µM; with MDA-MB-231 breast, 52.8 µM; in the experiment with HL-60(TB) leukemia, above 100 µM; in the experiment with HS 578T breast it was 62 µM; with HOP-92 NSCLC, 34 µM; in the experiment on OVCAR-5 ovarian, above 100 µM. Further, the TGI in the experiment on OVCAR-8 ovarian was found to be 75.1 µM.

For `CCCCN1C(=O)CC2[C@@H]3CCc4cc(OC)ccc4C3CC[C@]2(C)C1=O` (stereo partly drawn), the TGI with SK-MEL-28 melanoma, with A498 renal, with MDA-MB-231 breast, in the experiment with HL-60(TB) leukemia, with HS 578T breast and in the experiment on DU-145 prostate was above 10 µM each time. Also, the TGI with HOP-62 NSCLC, with OVCAR-5 ovarian and with OVCAR-8 ovarian was above 10 µM throughout.

On to `COc1ccc(C2=C(Cl)C(=O)O/C2=C\c2ccc(OC)c(Br)c2)cc1Cl`, for which the TGI with SK-MEL-28 melanoma is above 100 µM; in the experiment with A498 renal, 52.9 µM; in the experiment with HL-60(TB) leukemia, above 100 µM; in the experiment on HS 578T breast, above 100 µM; in the experiment on HOP-92 NSCLC, 49.9 µM; with DU-145 prostate it was above 100 µM. Also, the TGI in the experiment with HOP-62 NSCLC was 30.8 µM; in the experiment on OVCAR-5 ovarian, above 100 µM; in the experiment with OVCAR-8 ovarian, 51.8 µM.

For the compound `CC(C)CC(NC(=O)C(CCC(=O)OCc1ccccc1)NC(=O)OC(C)(C)C)C(=O)NC(COCc1ccccc1)C(=O)NC(Cc1ccccc1)C(=O)Oc1c(Cl)c(Cl)c(Cl)c(Cl)c1Cl` (stereo not drawn) (Boc-E(OBn)LS(Bn)F-X26; configuration not given here), the TGI in the experiment on SK-MEL-28 melanoma is 56.4 µM; with MDA-MB-231 breast, 34.5 µM; in the experiment with HS 578T breast it was 65.9 µM; with HOP-92 NSCLC, 43.8 µM; in the experiment on DU-145 prostate, above 100 µM; in the experiment with OVCAR-5 ovarian, 56.7 µM. Moreover, the TGI in the experiment with OVCAR-8 ovarian came out at 65.5 µM.

For `COc1ccc(OC)c(NC(=O)C(=O)C(C(=O)c2ccccc2F)C2OC(=O)c3ccccc32)c1` (stereo not drawn), the TGI in the experiment on SK-MEL-28 melanoma, in the experiment with A498 renal, with HL-60(TB) leukemia, in the experiment with HOP-92 NSCLC, in the experiment on HOP-62 NSCLC and in the experiment on OVCAR-5 ovarian was above 100 µM in each case. Also, in the experiment with OVCAR-8 ovarian, the TGI is above 100 µM.

For `NC(N)=NS(=O)(=O)c1ccc(NC(=O)c2cccc3c(NNc4ccc(S(N)(=O)=O)cc4)c4ccccc4nc23)cc1`, the TGI in the experiment on SK-MEL-28 melanoma is above 100 µM; in the experiment with MDA-MB-231 breast, above 100 µM; with HL-60(TB) leukemia, 66.2 µM; with HS 578T breast, above 100 µM; with HOP-92 NSCLC, 85.6 µM; with DU-145 prostate, above 100 µM. The TGI with HOP-62 NSCLC, in the experiment with OVCAR-5 ovarian and in the experiment with OVCAR-8 ovarian was above 100 µM throughout.

For the compound `CCCCCCc1cc2cc(-c3csc(-c4ccc(OC)cc4)n3)c(=O)oc2cc1O`, the TGI with SK-MEL-28 melanoma is 24.6 µM; with MDA-MB-231 breast, 25.3 µM; with HL-60(TB) leukemia, above 100 µM; in the experiment on HS 578T breast it was 60.7 µM; in the experiment with HOP-92 NSCLC, 16.2 µM; with DU-145 prostate it was 33.6 µM. Besides, the TGI was 29.6 µM in the experiment with HOP-62 NSCLC and 79.9 µM with OVCAR-5 ovarian.

As for `O=c1c(-c2ccccc2)c(SCCN2CCCCCC2)n(-c2ccccc2)c(=S)n1-c1ccccc1`, the TGI is above 100 µM in the experiment on SK-MEL-28 melanoma; 56.7 µM in the experiment on A498 renal; 46.9 µM in the experiment on HL-60(TB) leukemia; above 100 µM with HS 578T breast; above 100 µM in the experiment on HOP-92 NSCLC; 66.1 µM with DU-145 prostate. Moreover, the results for the TGI in the experiment on HOP-62 NSCLC, in the experiment with OVCAR-5 ovarian and in the experiment with OVCAR-8 ovarian were above 100 µM, 44.3 µM and above 100 µM, respectively.

Regarding `CCN1CCN(Cc2ccc(NC(=O)Nc3ccc(-n4ccc5c(NC(=O)c6ccccc6)nccc54)cc3)cc2C(F)(F)F)CC1`, the GI50 in the experiment with SK-MEL-28 melanoma was 1.62 µM; in the experiment on A498 renal it was 5.17 µM; with HL-60(TB) leukemia, 1.71 µM; with HOP-92 NSCLC, 13.3 µM; in the experiment with DU-145 prostate, 1.12 µM; in the experiment with OVCAR-8 ovarian, 0.968 µM. For the same compound, the TGI is 3.07 µM in the experiment with SK-MEL-28 melanoma; 19.1 µM in the experiment on A498 renal; 7.91 µM with HL-60(TB) leukemia; 59.6 µM in the experiment on HOP-92 NSCLC; 2.34 µM in the experiment with DU-145 prostate; 4.92 µM with OVCAR-8 ovarian.

For `CC(=O)N(C)c1ccc(Nc2ccnc3ccc4nn(C)nc4c23)cc1`, the TGI in the experiment on SK-MEL-28 melanoma was 73.1 µM; in the experiment on HL-60(TB) leukemia it was 38.8 µM; with HS 578T breast, 53.2 µM; with DU-145 prostate, 92.2 µM; with HOP-62 NSCLC it was 84.3 µM; with OVCAR-5 ovarian, 94.1 µM. The compound also had a TGI in the experiment with OVCAR-8 ovarian above 100 µM.

`Oc1c(OCc2nnc(CCCCCCCCc3nnc(COc4ccc5ccccc5c4O)o3)o2)ccc2ccccc12`: the TGI in the experiment with SK-MEL-28 melanoma, with A498 renal, with MDA-MB-231 breast, with HOP-92 NSCLC, in the experiment on DU-145 prostate and in the experiment on OVCAR-5 ovarian was above 100 µM in each case.

On to `Cc1cnc2[nH]c(-c3cccc(F)c3)cc(=O)c2c1`, for which the TGI was above 100 µM with SK-MEL-28 melanoma; 0.614 µM in the experiment on MDA-MB-231 breast; 0.0628 µM in the experiment with HL-60(TB) leukemia; 0.0448 µM with HS 578T breast; above 100 µM with HOP-92 NSCLC; 1.3 µM with DU-145 prostate. The TGI in the experiment with HOP-62 NSCLC was above 100 µM; in the experiment on OVCAR-5 ovarian, above 100 µM; with OVCAR-8 ovarian, 1.5 µM.

As for `O=c1[nH]c(=O)n(C2CC(O)C(CO)O2)cc1OC/C=C/Cc1ccccc1` (stereo not drawn), the TGI with SK-MEL-28 melanoma, with MDA-MB-231 breast, in the experiment on HL-60(TB) leukemia, in the experiment on HS 578T breast, with DU-145 prostate and in the experiment on HOP-62 NSCLC was above 100 µM in each case. The TGI in the experiment with OVCAR-5 ovarian and in the experiment on OVCAR-8 ovarian was above 100 µM each time.

Consider `CCOC(=O)/C=C(/C=C\COC1CCCCO1)c1ccccc1` (stereo not drawn), for which the TGI is 85.7 µM with SK-MEL-28 melanoma; above 100 µM in the experiment with A498 renal; above 100 µM in the experiment on MDA-MB-231 breast; 44.2 µM with HL-60(TB) leukemia; above 100 µM in the experiment with HS 578T breast; above 100 µM with DU-145 prostate. Besides, the TGI in the experiment on HOP-62 NSCLC was above 100 µM; in the experiment on OVCAR-5 ovarian it was above 100 µM; in the experiment with OVCAR-8 ovarian, 59.9 µM.
